Results reported in patent US10858362B2, “Imidazopyrazinones as PDE1 inhibitors” (H. Lundbeck A/S, priority 2015, dated 2020).

Tests used:
Format in all cases: biochemical
PDE1A = PDE1A (Homo sapiens (Human), UniProt P54750); assay: PDE1 inhibition assay, PDE1A; settings: for IC50: 15 nM tritium labelled cAMP; for inhibition at 1 µM: read-out: PDE1A, % inhibition (at 1 μM)
Method: (§1) Reactions were initiated by addition of the cyclic nucleotide substrate, and reactions were allowed to proceed for 1 h at room temperature before being terminated through mixing with 20 μL (0.2 mg) yttrium silicate SPA beads (PerkinElmer).

PDE1B = PDE1B (Homo sapiens (Human), UniProt Q01064); assay: PDE1 inhibition assay, PDE1B; settings: for IC50: 15 nM tritium labelled cAMP
Sequence of PDE1B (Q01064 whole entry): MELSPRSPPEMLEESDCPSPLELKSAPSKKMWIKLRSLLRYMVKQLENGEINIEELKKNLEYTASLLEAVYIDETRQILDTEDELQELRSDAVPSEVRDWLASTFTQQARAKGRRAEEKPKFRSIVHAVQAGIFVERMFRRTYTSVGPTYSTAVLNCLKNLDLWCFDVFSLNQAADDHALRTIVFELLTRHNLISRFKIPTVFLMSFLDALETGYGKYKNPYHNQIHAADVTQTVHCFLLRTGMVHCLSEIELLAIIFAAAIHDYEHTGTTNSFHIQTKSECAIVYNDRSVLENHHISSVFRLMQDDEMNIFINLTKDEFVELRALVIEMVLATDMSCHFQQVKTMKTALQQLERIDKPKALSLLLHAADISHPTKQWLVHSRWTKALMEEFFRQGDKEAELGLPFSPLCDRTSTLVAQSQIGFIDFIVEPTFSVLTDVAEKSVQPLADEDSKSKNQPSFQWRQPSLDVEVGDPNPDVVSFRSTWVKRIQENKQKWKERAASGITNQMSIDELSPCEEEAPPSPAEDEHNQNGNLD
Method: as §1, with “(PerkinElmer). The beads were allowed to settle for 1 h in the dark before the plates were counted in a Wallac 1450 Microbeta counter.” for “(PerkinElmer).”

PDE1C = PDE1C (Homo sapiens (Human), UniProt Q14123); assay: PDE1 inhibition assay, PDE1C; settings: for IC50: 15 nM tritium labelled cAMP; for inhibition at 1 µM: read-out: PDE1C, % inhibition (at 1 μM)
Sequence of PDE1C (Q14123 whole entry): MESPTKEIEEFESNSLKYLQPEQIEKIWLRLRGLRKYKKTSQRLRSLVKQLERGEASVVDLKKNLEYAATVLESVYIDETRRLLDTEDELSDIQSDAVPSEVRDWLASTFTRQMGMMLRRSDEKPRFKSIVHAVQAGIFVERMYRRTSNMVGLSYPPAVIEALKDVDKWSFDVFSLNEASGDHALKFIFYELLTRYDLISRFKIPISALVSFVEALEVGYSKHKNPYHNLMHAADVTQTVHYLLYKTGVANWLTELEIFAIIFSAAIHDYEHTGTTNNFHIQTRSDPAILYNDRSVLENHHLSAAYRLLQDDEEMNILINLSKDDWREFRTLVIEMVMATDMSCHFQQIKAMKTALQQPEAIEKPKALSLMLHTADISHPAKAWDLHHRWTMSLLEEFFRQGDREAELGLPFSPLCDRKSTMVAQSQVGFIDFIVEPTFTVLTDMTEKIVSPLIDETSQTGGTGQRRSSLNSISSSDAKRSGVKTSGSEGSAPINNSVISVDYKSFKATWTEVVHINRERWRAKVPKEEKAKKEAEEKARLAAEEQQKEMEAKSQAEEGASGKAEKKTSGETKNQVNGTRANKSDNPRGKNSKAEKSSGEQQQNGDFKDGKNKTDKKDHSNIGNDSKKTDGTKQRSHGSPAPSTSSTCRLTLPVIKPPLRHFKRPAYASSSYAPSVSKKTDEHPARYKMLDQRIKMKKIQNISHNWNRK
Method: as §1, with “(PerkinElmer). The beads were allowed to settle for 1 h in the dark before the plates were counted in a Wallac 1450 Microbeta counter.” for “(PerkinElmer).”

PDE9 = PDE9 (Homo sapiens (Human), UniProt O76083); assay: PDE9 inhibition assay
Sequence of PDE9 (O76083 whole entry): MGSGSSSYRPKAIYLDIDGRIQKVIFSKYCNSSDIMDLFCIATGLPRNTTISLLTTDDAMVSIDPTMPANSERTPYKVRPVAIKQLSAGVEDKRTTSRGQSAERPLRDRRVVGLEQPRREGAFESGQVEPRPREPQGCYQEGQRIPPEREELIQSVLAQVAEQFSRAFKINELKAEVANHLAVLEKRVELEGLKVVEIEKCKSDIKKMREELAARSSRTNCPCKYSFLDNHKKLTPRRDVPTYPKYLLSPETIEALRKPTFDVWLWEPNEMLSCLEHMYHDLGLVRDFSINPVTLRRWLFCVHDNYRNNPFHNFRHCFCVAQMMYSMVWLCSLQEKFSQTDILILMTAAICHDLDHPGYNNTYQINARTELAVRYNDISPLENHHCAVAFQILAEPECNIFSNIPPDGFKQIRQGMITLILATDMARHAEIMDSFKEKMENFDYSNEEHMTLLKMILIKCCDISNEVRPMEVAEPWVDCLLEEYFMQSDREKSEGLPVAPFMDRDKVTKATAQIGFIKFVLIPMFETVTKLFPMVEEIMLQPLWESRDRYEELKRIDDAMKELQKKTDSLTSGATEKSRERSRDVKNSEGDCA
Method: A PDE9 assay may for example, be performed as follows: The assay is performed in 60 μL samples containing a fixed amount of the relevant PDE enzyme (sufficient to convert 20-25% of the cyclic nucleotide substrate), a buffer (50 mM HEPES7.6; 10 mM MgCl2; 0.02% Tween20), 0.1 mg/ml BSA, 225 pCi of ^3H-labelled cyclic nucleotide substrate, tritium labeled cAMP to a final concentration of 5 nM and varying amounts of inhibitors. Reactions are initiated by addition of the cyclic nucleotide substrate, and reactions are allowed to proceed for one hr at room temperature before being terminated through mixing with 15 μL 8 mg/mL yttrium silicate SPA beads (Amersham). The beads are allowed to settle for one hr in the dark before the plates are counted in a Wallac 1450 Microbeta counter.
In the context of the present invention the assay was performed in 60 μL assay buffer (50 mM HEPES pH 7.6; 10 mM MgCl2; 0.02% Tween20) containing enough PDE9 to convert 20-25% of 10 nM ^3H-cAMP and varying amounts of inhibitors. Following a 1 hr incubation the reactions were terminated by addition of 15 μL 8 mg/mL yttrium silicate SPA beads (Amersham). The beads were allowed to settle for one hr in the dark before the plates were counted in a Wallac 1450 Microbeta counter.

Sequence of PDE1A (P54750 whole entry): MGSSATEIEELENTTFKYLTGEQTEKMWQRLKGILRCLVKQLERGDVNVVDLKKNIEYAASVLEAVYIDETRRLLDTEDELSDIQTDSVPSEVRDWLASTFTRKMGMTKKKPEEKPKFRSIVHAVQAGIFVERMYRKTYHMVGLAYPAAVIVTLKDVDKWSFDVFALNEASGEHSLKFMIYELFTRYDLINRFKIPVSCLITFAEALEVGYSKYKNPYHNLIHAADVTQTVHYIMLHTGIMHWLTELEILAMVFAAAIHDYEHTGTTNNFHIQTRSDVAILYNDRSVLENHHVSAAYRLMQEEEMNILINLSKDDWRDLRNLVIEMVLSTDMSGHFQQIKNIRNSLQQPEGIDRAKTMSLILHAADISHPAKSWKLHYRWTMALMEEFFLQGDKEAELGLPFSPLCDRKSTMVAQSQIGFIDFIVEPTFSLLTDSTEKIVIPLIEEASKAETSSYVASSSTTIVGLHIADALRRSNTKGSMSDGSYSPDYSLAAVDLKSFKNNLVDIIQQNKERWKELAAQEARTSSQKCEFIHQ

| Structure (SMILES) | IC50 (PDE1A) | IC50 (PDE1B) | IC50 (PDE1C) | inhibition at 10 µM (PDE9) | other results |
| --- | --- | --- | --- | --- | --- |
| Cc1cn2c(C3CCOCC3)ncc2c(=O)n1Cc1ccccc1 [Example 16, 7-Benzyl-6-methyl-3-(tetrahydro-2H-pyran-4-yl)imidazo[1,5-a]pyrazin-8(7H)-one] | 0.085 µM | 0.057 µM | 0.012 µM | 19% | – |
| Cc1cn2c(N3CCC4OCCC43)ncc2c(=O)n1Cc1cccc(F)c1 (single isomer, unassigned; isomer 2) [99, isomer 2] | – | 0.76 µM | 0.119 µM | – | PDE1A, % inhibition (at 10 μM) (PDE1A; at 10 μM): 47%; % inhibition of PDE9 at 10 microM (PDE9): 6% |
| CCc1cn2c(C3CCOCC3)ncc2c(=O)n1Cc1ccc(OC)cc1 [Example 44, 6-ethyl-7-(4-methoxybenzyl)-3-(tetrahydro-2H-pyran-4-yl)imidazo[1,5-a]pyrazin-8(7H)-one] | 0.04 µM | 0.005 µM | 0.016 µM | 18% | – |
| Cc1cn2c(C3CCOCC3)ncc2c(=O)n1Cc1ccc(OC2CC2)cc1 [Example 39, 7-(4-cyclopropoxybenzyl)-6-methyl-3-(tetrahydro-2H-pyran-4-yl)imidazo[1,5-a]pyrazin-8(7H)-one] | 0.413 µM | 0.118 µM | 0.364 µM | 23% | – |
| Cc1cn2c([C@H]3CCCCO3)ncc2c(=O)n1Cc1cccc(F)c1 (single isomer, unassigned; isomer 2) [30, isomer 2] | – | – | 0.215 µM | – | PDE1A, % inhibition (at 1 μM) (PDE1A; at 1 μM): 27%; PDE1B, % inhibition (at 1 μM) (PDE1B; at 1 μM): 40%; % inhibition of PDE9 at 10 microM (PDE9): 28% |
| Cc1ccc(Cn2c(C)cn3c(C4CCOCC4)ncc3c2=O)cc1 [Example 22, 6-Methyl-7-(4-methylbenzyl)-3-(tetrahydro-2H-pyran-4-yl)imidazo[1,5-a]pyrazin-8(7H)-one] | 0.075 µM | 0.028 µM | 0.067 µM | 50% | – |
| COC1(c2ncc3c(=O)n(Cc4cccc(F)c4)c(C)cn23)CCOCC1 [Example 28, 7-(3-fluorobenzyl)-3-(4-methoxytetrahydro-2H-pyran-4-yl)-6-methylimidazo[1,5-a]pyrazin-8(7H)-one] | 0.663 µM | 0.737 µM | 0.072 µM | 13% | – |
| O=c1c2cnc(C3CCOCC3)n2ccn1CC1CCCC1 [Example 10, 7-(Cyclopentylmethyl)-3-(tetrahydro-2H-pyran-4-yl)imidazo[1,5-a]pyrazin-8(7H)-one] | – | – | 0.079 µM | 8% | inhibition at 2 µM (PDE1A; read-out: PDE1A, % inhibition (at 2 μM)): 73%; inhibition at 2 µM (PDE1B; read-out: PDE1B, % inhibition (at 2 μM)): 88% |
| Cc1cn2c([C@@H]3C[C@@H]3C)ncc2c(=O)n1Cc1cccc(F)c1 (single isomer, unassigned; isomer 1) [35, isomer 1] | 0.193 µM | 0.075 µM | 0.019 µM | – | % inhibition of PDE9 at 10 microM (PDE9): −11% |
| Cc1cn2c(C3CCOCC3)ncc2c(=O)n1Cc1cccc(C#N)c1 [Example 45, 3-((6-methyl-8-oxo-3-(tetrahydro-2H-pyran-4-yl)imidazo[1,5-a]pyrazin-7(8H)-yl)methyl)benzonitrile] | – | – | 0.149 µM | 6% | percent inhibition of PDE1A at 2 µM (PDE1A; at 2 μM, % sign not given): 64; inhibition at 1 µM (PDE1B; read-out: PDE1B, % inhibition (at 1 μM)): 54% |
| Cc1cn2c(C3CCOCC3)ncc2c(=O)n1Cc1ccc(OC(F)(F)F)cc1 [Example 41, 6-methyl-3-(tetrahydro-2H-pyran-4-yl)-7-(4-(trifluoromethoxy)benzyl)imidazo[1,5-a]pyrazin-8(7H)-one] | 0.027 µM | 0.018 µM | 0.052 µM | -22% | – |
| Cc1cn2c(C3CCOCC3)ncc2c(=O)n1Cc1ccccc1F [Example 17, 7-(2-Fluorobenzyl)-6-methyl-3-(tetrahydro-2H-pyran-4-yl)imidazo[1,5-a]pyrazin-8(7H)-one] | 0.042 µM | 0.036 µM | 0.009 µM | 7% | – |
| Cc1cn2c(C3(C)CC3)ncc2c(=O)n1Cc1cccc(F)c1 [Example 33, 7-(3-fluorobenzyl)-6-methyl-3-(1-methylcyclopropyl)imidazo[1,5-a]pyrazin-8(7H)-one] | 0.094 µM | 0.052 µM | 0.007 µM | -2% | – |
| Cc1cn2c(C3CCOCC3)ncc2c(=O)n1C[C@H]1CC[C@H](C)CC1 [66, trans] | 0.035 µM | 0.011 µM | 0.046 µM | – | % inhibition of PDE9 at 10 microM (PDE9): −2% |

Further lines, with some results ahead:

| IC50 (PDE1A) | IC50 (PDE1B) | IC50 (PDE1C) | inhibition at 10 µM (PDE9) | Structure (SMILES) | other results |
| --- | --- | --- | --- | --- | --- |
| 0.12 µM | 0.032 µM | 0.032 µM | 7% | CCCc1ncc2c(=O)n(CC3CCCCC3)c(C)cn12 [Example 85, 7-(cyclohexylmethyl)-6-methyl-3-propylimidazo[1,5-a]pyrazin-8(7H)-one] | – |
| – | 0.388 µM | – | 10% | CC(=O)Nc1ccc(Cn2c(C)cn3c(C4CCOCC4)ncc3c2=O)cc1 [Example 47, N-(4-((6-methyl-8-oxo-3-(tetrahydro-2H-pyran-4-yl)imidazo[1,5-a]pyrazin-7(8H)-yl)methyl)phenyl)acetamide] | inhibition at 1 µM (PDE1A): 0%; inhibition at 1 µM (PDE1C): 10% |
| 0.81 µM | 0.221 µM | 0.423 µM | -13% | CCCn1c(C)cn2c(C3CCOCC3)ncc2c1=O [Example 60, 6-methyl-7-propyl-3-(tetrahydro-2H-pyran-4-yl)imidazo[1,5-a]pyrazin-8(7H)-one] | – |
| 0.09 µM | 0.012 µM | 0.043 µM | 9% | COc1ccc(Cn2c(C)cn3c([C@H](C)c4ccccc4)ncc3c2=O)cc1 [Example 72, (R)-7-(4-methoxybenzyl)-6-methyl-3-(1-phenylethyl)imidazo[1,5-a]pyrazin-8(7H)-one] | – |
| – | 0.388 µM | – | -3% | Cc1cn2c(C3CCOCC3)ncc2c(=O)n1Cc1ccc(N)cc1 [Example 52, 7-(4-aminobenzyl)-6-methyl-3-(tetrahydro-2H-pyran-4-yl)imidazo[1,5-a]pyrazin-8(7H)-one] | inhibition at 1 µM (PDE1A): 0%; inhibition at 1 µM (PDE1C): 10% |
| 0.258 µM | 0.162 µM | 0.218 µM | 9% | COc1ccc(Cn2c(C)cn3c(N4CCOC[C@H]4C)ncc3c2=O)cc1 [Example 95, (R)-7-(4-methoxybenzyl)-6-methyl-3-(3-methylmorpholino)imidazo[1,5-a]pyrazin-8(7H)-one] | – |
| 0.484 µM | 0.308 µM | 0.548 µM | -32% | COc1ccc(Cn2c(C)cn3c(C4CCNC(=O)CC4)ncc3c2=O)cc1 (centres unmarked) [Example 88, 7-(4-methoxybenzyl)-6-methyl-3-(7-oxoazepan-4-yl)imidazo[1,5-a]pyrazin-8(7H)-one] | – |
| 0.627 µM | 0.103 µM | 0.337 µM | -5% | COc1ccc(Cn2c(C)cn3c(C4CC(C)OC(C)C4)ncc3c2=O)cc1 (centres unmarked) [Example 84, 3-(2,6-dimethyltetrahydro-2H-pyran-4-yl)-7-(4-methoxybenzyl)-6-methylimidazo[1,5-a]pyrazin-8(7H)-one] | – |
| 0.029 µM | 0.017 µM | 0.028 µM | -11% | COc1ccc(Cn2c(C)cn3c([C@@]4(C)C[C@@H]5CC[C@H]4O5)ncc3c2=O)cc1 [Example 70, 7-(4-methoxybenzyl)-6-methyl-3-((1R,2R,4S)-2-methyl-7-oxabicyclo[2.2.1]heptan-2-yl)imidazo[1,5-a]pyrazin-8(7H)-one] | – |
